One compound from EP4775570A1, “CYP11A1 INHIBITOR, PREPARATION METHOD THEREFOR AND USE THEREOF” (Shenzhen Zhongge Biological Technology Co., Ltd., priority 2023, dated 2025) can be followed below.

SMILES strings stand for the structures.

Data set [1] in a line: PK study, intravenous and oral administration, plasma LC-MS/MS. The format is in vivo. The note with it: both sexes, 5 mg/kg, oral administration of 5 mpk, species not given (ICR mice or SD Rat). Here is the method:
ICR mice (male/female, total 6 animals) were assigned to two groups for oral administration and intravenous administration, respectively, with 3 mice in each group. Before administration, the animals were fasted for 10-14 hours, with water available ad lib.
SD Rat (male/female, total 6 animals) were assigned to two groups for oral administration and intravenous administration, respectively, with 3 mice in each group. Before administration, the animals were fasted for 10-14 hours, with water available ad lib.
The compounds to be tested were weighed out in accordance with intended dosage, formulated with vehicles (5% DMSO + 10% Solutol + 85% physiological saline) to dosage form at appropriate concentrations (administered intravenously and orally in rats or mice at a volume of 5 mL/kg and 10 mL/kg, respectively). The dosage form for intravenous injection is a clear solution, and the dosage form for oral administration is a clear solution or homogenous suspension.
Administration to animals was conducted through intravenous injection and oral gavage, and blood samples were collected at 0.033, 0.083, 0.25, 0.5, 1, 2, 4, 8, and 24 hours after intravenous injection, or at 0.083, 0.25, 0.5, 1, 2, 4, 6, 8, and 24 hours after oral administration. After centrifugation of whole blood samples at 4°C and 6,800g for 6 minutes, the upper layers of plasma were stored at -80°C refrigerator before analysis.
The DMSO stock solutions of the substance to be tested were diluted with methanol or acetonitrile solution to serial working solutions and added to blank plasma matrix to formulate samples for standard curve and quality control. An appropriate volume of plasma sample was added with appropriate fold of methanol or acetonitrile containing internal standards, according to response, for protein precipitation. After centrifugation of all samples at 4°C and 18,000g for 10 min, appropriate volumes of supernatant were taken for LC-MS/MS analysis.
Plasma drug concentration-time curves were plotted in accordance with tested concentrations, and pharmacokinetic parameters were calculated based on non-compartmental model using WinNonlin software, including half-life (T1/2), area under the drug concentration-time curve (AUC0-t), clearance rate (CL), steady-state distribution volume (Vss), bioavailability (F), etc.

In data set [2] the test system is VCaP castration-resistant prostate cancer subcutaneous transplant tumor model. The experiment in a line: In vivo pharmacodynamic study in a VCaP castration-resistant prostate cancer subcutaneous transplant tumor model. Details: species or system SCID-Beige mice. The note with it: 30mg/kg BID oral + prednisone 0.6mg/kg QD, castrated tumor-bearing mice, 32 days. Here is the method:
Animals: experimental male SCID-Beige mice, 6-8-weeks old or 18-22g, provided by Beijing Vital River Laboratory Animal Technology Co., Ltd.
Experiment procedures: all experimental animals were kept within specific-pathogen-free animal barrier facility, and allowed 3 days of adaptation before the experiment began. VCaP tumor cells were in vitro cultured as monolayer in DMEM complete medium (with 10% fetal bovine serum and 1% penicillin & streptomycin) at 37°C in air containing 5% CO2. Tumor cells were routinely passaged 2-3 times a week, and cells in exponential growth phase were collected and counted for tumor cell inoculation. 10x10^6 VCaP tumor cells were resuspended in 0.1ml PBS, thoroughly mixed with 0.1ml matrigel, and then inoculated subcutaneously on the right flank of each mouse to form a tumor. The tumor-bearing mice were allowed to develop to an average tumor volume of around 200mm^3 and underwent castration surgery. The tumor volumes of all mice were measured after one week of castration surgery. Suitable tumor-bearing mice were selected and assigned randomly into the following groups: blank control group, prednisone (0.6mg/kg, QD) group, abiraterone (33.73mg/kg, QD) + prednisone (0.6mg/kg, QD) group, ODM-208 (30mg/kg, BID) + prednisone (0.6mg/kg, QD) group, and the compound of the present disclosure (30mg/kg, BID) + prednisone (0.6mg/kg, QD) group. Animals in blank control group were orally administered with vehicles (0.5%MC+0.5%Tween80 and 0.5%CMCNa), and the animals in other groups were orally administered with corresponding compound. The experiment lasted for 32 days, and during the experiment, the animals in each group were measured for tumor volume and body weight twice a week.

The subject of data set [3] is testosterone, progesterone, corticosterone. The experiment in a line: LC-MS detection of testosterone, progesterone and corticosterone in mouse tumors and adrenal glands. The format is in vivo. The following applies: mouse tumors and adrenal glands, VCaP model. The source says: • Mouse tumors were homogenized using PBS in a 1:5 ratio (tumor weight (g): PBS volume (mL), w/v); • Mouse adrenal glands were homogenized using PBS in a 1:10 ratio (adrenal gland weight (g): PBS volume (mL), w/v); • Standard sample: testosterone (LGC, C17322500), progesterone (MCE, HY-N0437), adrenal ketone (MCE, HY-B1618), and standard solution of test substance.
Experiment procedures: since the three markers, i.e., testosterone, progesterone, and adrenal ketone, are all endogenous substances and present in the blank matrix as well, PBS was alternatively used as matrix in the production of the standard curve.
Testosterone: multiple reaction monitoring (MRM) method was used for detecting the concentrations of testosterone in mouse tumors and adrenal glands. Mass spectrum: AB Sciex Triple Quad 6500+; liquid chromatography: Shimadzu 40A, column: Waters XBridge BEH C18 2.5 µm 2.1*50mm, testosterone ion pair: 289.4/97.2. Both tumor and adrenal tissues were treated with methanol as precipitant and tolbutamide as internal standard for sample pretreatment, with linear range in 50-50,000pg/mL.
Progesterone and corticosterone: multi-reaction detection method (MRM) was used for detecting the concentrations of progesterone and corticosterone in mouse tumors and adrenal glands. Mass spectrum: AB Sciex Triple Quad 6500+; liquid chromatography: Shimadzu 40A, column: Waters XSelect HSS T3 2.5 µm 2.1*50mm, progesterone ion pair: 315.4/97.2, adrenone ion pair: 347.4/121.3. For tumor tissues, acetonitrile was used as precipitant and propranolol diclofenac as internal standard for sample pretreatment, with linear ranges in 0.05-10 ng/mL of progesterone and 0.10-20 ng/mL of corticosterone. For adrenal tissues, methanol was used as precipitant and propranolol diclofenac as internal standard for sample pretreatment, with linear ranges in 5-2,500 ng/mL of progesterone and 5-2,500 ng/mL of corticosterone.

In data set [1], `CS(=O)(=O)N1CCC(COc2coc(CN3Cc4ccccc4C3)cc2=O)CC1` [ODM-208, reference compound] had an AUC of 1310 ng·h/mL and a Cmax of 807 ng/mL. The bioavailability in data set [1] (read-out: bioavailability (F)) is 59%. Besides, in data set [1] (read-out: half-life (t1/2) (converted)), the half-life is 1.8 h. In addition, in data set [2], the “tumor inhibition rate TGI” value worked out at 85%. Moreover, the “secretion of testosterone, progesterone and corticosterone in tumors and adrenal glands (in words)” value in data set [3] is recorded as “significantly inhibits”.

One may read the AUC as concentration integrated over time. A high value points to more exposure. What is called Cmax is the highest concentration seen after dosing. One may read the bioavailability as the share of a dose that reaches the circulation, judged against a reference dose that is usually intravenous.
